# Reference: PubChem BioAssay AID248 (DTP/NCI, 2004)
# Values joined by “and” are separate entries in the source; they are usually repeats but may differ in a detail not shown here. Equal values may be shown once. Inconclusive results and toxic doses are left out.
# Test system: L1210 leukemia ip in BDF1 mice, survival T/C
# Assay: NCI In Vivo Anticancer Drug Screen. Data for tumor model L1210 Leukemia (intraperitoneal) in B6D2F1 (BDF1) mice
# Conditions: endpoint: mean survival time, higher = longer survival
# How it was run: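 In this screen, tumor-bearing mice given compound are compared to those given vehicle, and their survival values are reported as a treated-to-control quotient.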
compound,measurement,setting,value
O=c1[nH]c(=O)n([C@H]2CCCO2)cc1F,T/C,"dose: 2.5 mg/kg/injection, schedule: Q01DX009 (ip), vehicle: saline",97 % of control
same,T/C,"dose: 5.0 mg/kg/injection, schedule: Q01DX009 (ip), vehicle: saline",98 % of control
same,T/C,"dose: 5.0 mg/kg/injection, schedule: Q01DX009 (oral), vehicle: saline",102 % of control
same,T/C,"dose: 10.0 mg/kg/injection, schedule: Q01DX009 (ip), vehicle: saline",100 % of control
same,T/C,"dose: 10.0 mg/kg/injection, schedule: Q01DX009 (oral), vehicle: saline",103 % of control
same,T/C,"dose: 20.0 mg/kg/injection, schedule: Q01DX009 (ip), vehicle: saline",103 % of control
same,T/C,"dose: 20.0 mg/kg/injection, schedule: Q01DX009 (oral), vehicle: saline",112 % of control
same,T/C,"dose: 38.9 mg/kg/injection, schedule: Q01DX009 (ip), vehicle: saline",97 % of control
same,T/C,"dose: 39.0 mg/kg/injection, schedule: Q01DX009 (ip), vehicle: Klucel (hydroxypropylcellulose) (HPC)",111 % of control
same,T/C,"dose: 40.0 mg/kg/injection, schedule: Q01DX009 (ip), vehicle: saline",101 % of control
same,T/C,"dose: 40.0 mg/kg/injection, schedule: Q01DX009 (oral), vehicle: saline",107 % of control
same,T/C,"dose: 64.8 mg/kg/injection, schedule: Q01DX009 (ip), vehicle: saline",107 % of control
same,T/C,"dose: 65.0 mg/kg/injection, schedule: Q01DX009 (ip), vehicle: Klucel (hydroxypropylcellulose) (HPC)",123 % of control
same,T/C,"dose: 75.0 mg/kg/injection, schedule: Q04DX003 (ip), vehicle: other",95 % of control
same,T/C,"dose: 80.0 mg/kg/injection, schedule: Q01DX009 (ip), vehicle: saline",114 % of control
same,T/C,"dose: 80.0 mg/kg/injection, schedule: Q01DX009 (oral), vehicle: saline",118 % of control
same,T/C,"dose: 105.0 mg/kg/injection, schedule: Q01DX012 (sc), vehicle: clinical formulation",159 % of control
same,T/C,"dose: 108.0 mg/kg/injection, schedule: Q01DX009 (ip), vehicle: Klucel (hydroxypropylcellulose) (HPC)",159 % of control
same,T/C,"dose: 108.0 mg/kg/injection, schedule: Q04DX003 (ip), vehicle: Klucel (hydroxypropylcellulose) (HPC)",113 % of control
same,T/C,"dose: 150.0 mg/kg/injection, schedule: Q04DX003 (ip), vehicle: other",111 % of control
same,T/C,"dose: 160.0 mg/kg/injection, schedule: Q01DX009 (ip), vehicle: saline",150 % of control
same,T/C,"dose: 160.0 mg/kg/injection, schedule: Q01DX009 (oral), vehicle: saline",113 % of control
same,T/C,"dose: 164.0 mg/kg/injection, schedule: Q01DX005 (sc), vehicle: clinical formulation",159 % of control
same,T/C,"dose: 164.0 mg/kg/injection, schedule: Q01DX012 (sc), vehicle: clinical formulation",121 % of control
same,T/C,"dose: 168.0 mg/kg/injection, schedule: Q01DX001 (ip), vehicle: other",99 % of control and 107 % of control
same,T/C,"dose: 168.0 mg/kg/injection, schedule: Q01DX001 (sc), vehicle: other",107 % of control and 116 % of control
same,T/C,"dose: 205.0 mg/kg/injection, schedule: Q01DX005 (sc), vehicle: clinical formulation",97 % of control
same,T/C,"dose: 205.0 mg/kg/injection, schedule: Q01DX012 (sc), vehicle: clinical formulation",106 % of control
same,T/C,"dose: 240.0 mg/kg/injection, schedule: Q01DX001 (ip), vehicle: other",116 % of control and 121 % of control
same,T/C,"dose: 240.0 mg/kg/injection, schedule: Q01DX001 (sc), vehicle: other",112 % of control and 117 % of control
same,T/C,"dose: 256.0 mg/kg/injection, schedule: Q01DX002 (sc), vehicle: clinical formulation",111 % of control
same,T/C,"dose: 256.0 mg/kg/injection, schedule: Q01DX005 (sc), vehicle: clinical formulation",102 % of control
same,T/C,"dose: 300.0 mg/kg/injection, schedule: Q01DX001 (ip), vehicle: Klucel (hydroxypropylcellulose) (HPC)",98 % of control
same,T/C,"dose: 300.0 mg/kg/injection, schedule: Q01DX009 (ip), vehicle: Klucel (hydroxypropylcellulose) (HPC)",114 % of control
same,T/C,"dose: 300.0 mg/kg/injection, schedule: Q01DX009 (ip), vehicle: saline",102 % of control
same,T/C,"dose: 300.0 mg/kg/injection, schedule: Q04DX003 (ip), vehicle: Klucel (hydroxypropylcellulose) (HPC)",152 % of control
same,T/C,"dose: 300.0 mg/kg/injection, schedule: Q04DX003 (ip), vehicle: other",161 % of control
same,T/C,"dose: 320.0 mg/kg/injection, schedule: Q01DX009 (ip), vehicle: saline",160 % of control
same,T/C,"dose: 320.0 mg/kg/injection, schedule: Q01DX009 (oral), vehicle: saline",98 % of control
same,T/C,"dose: 363.0 mg/kg/injection, schedule: Q01DX001 (ip), vehicle: other",121 % of control
same,T/C,"dose: 400.0 mg/kg/injection, schedule: Q01DX001 (sc), vehicle: clinical formulation",121 % of control
same,T/C,"dose: 490.0 mg/kg/injection, schedule: Q01DX001 (ip), vehicle: other",121 % of control
same,T/C,"dose: 500.0 mg/kg/injection, schedule: Q01DX001 (ip), vehicle: Klucel (hydroxypropylcellulose) (HPC)",117 % of control
same,T/C,"dose: 500.0 mg/kg/injection, schedule: Q01DX001 (sc), vehicle: clinical formulation",123 % of control
same,T/C,"dose: 500.0 mg/kg/injection, schedule: Q01DX002 (sc), vehicle: clinical formulation",110 % of control
